Data on two compounds can be found in US12721861B2, “Delivery and retention of active agents within the skin” (Fount Bio, Inc., priority 2019, dated 2026).

Series [1] concerns 3D reconstructed epidermis model (Epiderm tissue, Epi-200). The experiment in a line: Skin irritation test (OECD TG 439, EPI-200-SIT), MTT viability. It is filed as cell-based, human. To be noted: for reduction in cell viability in the skin tissue: 1 h exposure, MTT, relative to PBS, SDS 5%, HA-CBT 20 and 2 mg/mL, gly-CBT 1 and 0.1 mg/mL. On the procedure:
To evaluate the biocompatibility of CBT functionalized molecules, a skin irritation study was conducted using a 3D reconstructed epidermis model supplied by Mattek. The skin irritation test was conducted following the OECD TG 439 protocol as a basis. Upon receiving the Epiderm™ tissue (Epi-200) from Mattek, the tissue inserts were removed from agarose and incubated in 0.9 mL of media in 6 well plates for 1 h at 37° C. The tissue inserts were then transferred to new wells containing 0.9 mL of fresh media, and incubated overnight for 18 h at 37° C. 30 μL of PBS, HA-CBT (20 mg/mL and 2 mg/mL in PBS), gly-CBT (1 mg/mL and 0.1 mg/mL), and SDS (5 wt %) was applied and spread on the top of 3 independent tissue inserts each. After incubation at 37° C. for 1 h, the formulations were pipetted out and the tissue inserts were washed three times with PBS. The tissue inserts were then incubated in fresh media for 24 h at 37° C. The media was then exchanged with fresh media, and the inserts were incubated for an additional 18 h at 37° C. Following incubation, the viability of the tissue was assessed using the MTT assay, discussed in detail in a protocol established by Mattek (EPI-200-SIT).

Series [2] in a line: Skin penetration on porcine skin, fluorescence microscopy of cryosections. It is filed as in vitro ADME. As for the experimental part: Frozen, porcine skin was allowed to equilibrate to room temperature, and then cut into ~2×2 cm squares and placed into 0.9 mL of PBS in a 6 well plate. 25 μL of HA-CBT (10 mg/mL in PBS), gly-CBT (1 mg/mL in PBS), and PBS were gently spread on porcine skin to a 1 cm circle with a metal spatula. After spreading the formulations, the 6 well plate was placed into a humidified incubator at 37° C. for 18 h.
A small region in the center of the application area was then excised using a surgical scalpel, and placed into OCT in a biopsy mold. The tissue was snap frozen by placing the biopsy mold directly into a methylpentane, dry ice slurry. The tissue was then sectioned on a cryostat microtome to 20 μm sections. A drop of ProLong Gold was placed on each section and covered with a coverslip prior to imaging. Images were taken on a ZeissAxioPlan2 using a 10× objective and a DAPI filter to visualize the location of CBT.

A short description of series [3]: Penetration of gly-CBT in 3D human skin model (EpiDerm), absorbance at 326 nm and microscopy. The format is in vitro ADME. As for the experimental part:
The penetration and interactions of gly-CBT in human skin was assessed using a 3D human skin model (Mattek EpiDerm™). After allowing the skin tissues to equilibrate with media for 1 h at 37° C. in 6 well plates, the media was replaced with PBS and 100 μL of PBS and gly-CBT (1 mg/mL) were applied on top of 4 skin tissues each. Following 6 h incubation, a single tissue from each group was flash frozen in OCT for cryosectioning and microscopy. For the remaining samples, the liquid which remained on top of the tissue inserts (~100 μL) and the liquid in the acceptor solution (900 μL) was collected. The top of the tissue inserts were then washed 2× with PBS and then the inserts were submerged into 2 mL of a 1:1 PBS:MeOH solution to extract molecules which penetrated the skin. After performing the extraction for 2 h at 37° C., the concentration of gly-CBT was measured in the donor, acceptor, and extract solutions by reading the absorbance at 326 nm with a plate reader. The remaining tissue insert was cryosectioned and imaged using fluorescent microscopy as described in Example 1.

The nature of series [4]: Distribution of chemical species in EpiDerm tissue by HPLC with sequential extractions. It is filed as in vitro ADME, human. As for the experimental part:
To further study the penetration of gly-CBT within human skin tissue, HPLC was used to quantify the distribution of different chemical species after application of gly-CBT and gly-aminoLuciferin (gly-Luc) into EpiDerm™ tissue. As described above, 100 μL of gly-CBT and gly-Luc was applied on the top of the skin tissue. Following 6 h incubation, the donor and acceptor solutions were collected and the chemical species which penetrated the skin were attempted to be extracted with 1:1 MeOH:PBS. Following the first extraction protocol, the tissue inserts were rinsed with PBS and imaged in a dark room by exposing with a UV254 lamp. Following the imaging, further extractions were carried out sequentially with 1.0% Triton X-100, acidified MeOH (0.1% TFA), and DCM. Neither of the later extractions were successful in extracting out any additional CBT species.

Entries after “also recorded” stand apart in the source; their conditions may differ.

Turning to `CCCCCCCCCCCCOS(=O)(=O)[O-].[Na+]` [SDS, reference compound], the “reduction in cell viability in the skin tissue” value in series [1] is given as about 100%.

For `N#Cc1nc2ccc(NC(=O)CN)cc2s1` [gly-CBT], the “extraction of gly-CBT from porcine skin” value in series [2] is on record as “inability to extract”. The “fluorescence signal in the dermis” value in series [2] (18 h at 37 °C, DAPI filter) is given as “lower signal”. In addition, the “fluorescence within the stratum corneum and epidermis” value in series [2] (18 h at 37 °C, DAPI filter, HA-CBT 10 mg/mL, gly-CBT 1 mg/mL in PBS) is “High fluorescence”. In addition, the “applied gly-CBT extracted from within the Epiderm tissue” value in series [3] (1:1 PBS:MeOH extraction 2 h at 37 °C) is recorded as ~ 10%. Also, in series [3] (6 h incubation, 1:1 PBS:MeOH extraction), the “total gly-CBT detected after extraction and in donor and acceptor solutions” value is recorded as ~ 50%. Moreover, in series [3] (EpiDerm, 6 hours), the “fraction of the penetrated amount that appeared in the acceptor compartment” value is given as “about ⅓” and the “fraction of the penetrated amount that remained in the skin” value is “⅔”. Besides, the “applied dose that penetrated the skin” value in series [3] (EpiDerm, within 6 hours) is recorded as “about 75%”. The “fluorescent signal within the tissue by microscopy” value in series [3] (after 6 h application, cryosection) is reported as “significant fluorescent signal”. In addition, the “applied gly-CBT remaining on the surface of the epiderm tissue” value in series [3] (after 6 h incubation, 1 mg/mL, absorbance 326 nm) is ~ 25%. Also, the “fluorescence of tissue insert under UV lamp” value in series [4] (after first extraction process and washing step) was “extremely fluorescent”. The “extractability from the tissue with Triton X-100, acidified methanol and dichloromethane” value in series [4] (sequential extractions after 1:1 MeOH:PBS) is “unable to be extracted; also recorded: could not be removed”. Further, the “reduction in cell viability in the skin tissue” value in series [1] is recorded as “neither gly-CBT nor HA-CBT showed any reduction”. For the same compound, the irritation classification entry in series [1] (EPI-200-SIT, relative viability greater than 50% = non-irritant) is “non-irritants”.
